In patent US10246453B2, “Benzenesulfonamide compounds and their use as therapeutic agents” (Xenon Pharmaceuticals Inc., priority 2016, dated 2019):
pIC50: −log10 of the molar value. Structures can show the parent of a compound that is named as a salt.

Experiments:
NaV1.1 [1] = molecular target: T1, NaV1.1 (Homo sapiens (Human), UniProt P35498); assay: Sodium Influx Assay (Flux), NaV1.1; assay type: cell-based; conditions: Trex HEK293 cells, ANG2 dye; arithmetic mean
NaV1.6 [2] = molecular target: T2, NaV1.6 (Homo sapiens (Human), UniProt Q9UQD0); assay: Electrophysiological Assay (EP), patch voltage clamp, NaV1.6; assay type: cell-based; conditions: HEK-293 cells, whole-cell patch clamp, inactivated state; arithmetic mean
T2 sequence (Q9UQD0 whole entry): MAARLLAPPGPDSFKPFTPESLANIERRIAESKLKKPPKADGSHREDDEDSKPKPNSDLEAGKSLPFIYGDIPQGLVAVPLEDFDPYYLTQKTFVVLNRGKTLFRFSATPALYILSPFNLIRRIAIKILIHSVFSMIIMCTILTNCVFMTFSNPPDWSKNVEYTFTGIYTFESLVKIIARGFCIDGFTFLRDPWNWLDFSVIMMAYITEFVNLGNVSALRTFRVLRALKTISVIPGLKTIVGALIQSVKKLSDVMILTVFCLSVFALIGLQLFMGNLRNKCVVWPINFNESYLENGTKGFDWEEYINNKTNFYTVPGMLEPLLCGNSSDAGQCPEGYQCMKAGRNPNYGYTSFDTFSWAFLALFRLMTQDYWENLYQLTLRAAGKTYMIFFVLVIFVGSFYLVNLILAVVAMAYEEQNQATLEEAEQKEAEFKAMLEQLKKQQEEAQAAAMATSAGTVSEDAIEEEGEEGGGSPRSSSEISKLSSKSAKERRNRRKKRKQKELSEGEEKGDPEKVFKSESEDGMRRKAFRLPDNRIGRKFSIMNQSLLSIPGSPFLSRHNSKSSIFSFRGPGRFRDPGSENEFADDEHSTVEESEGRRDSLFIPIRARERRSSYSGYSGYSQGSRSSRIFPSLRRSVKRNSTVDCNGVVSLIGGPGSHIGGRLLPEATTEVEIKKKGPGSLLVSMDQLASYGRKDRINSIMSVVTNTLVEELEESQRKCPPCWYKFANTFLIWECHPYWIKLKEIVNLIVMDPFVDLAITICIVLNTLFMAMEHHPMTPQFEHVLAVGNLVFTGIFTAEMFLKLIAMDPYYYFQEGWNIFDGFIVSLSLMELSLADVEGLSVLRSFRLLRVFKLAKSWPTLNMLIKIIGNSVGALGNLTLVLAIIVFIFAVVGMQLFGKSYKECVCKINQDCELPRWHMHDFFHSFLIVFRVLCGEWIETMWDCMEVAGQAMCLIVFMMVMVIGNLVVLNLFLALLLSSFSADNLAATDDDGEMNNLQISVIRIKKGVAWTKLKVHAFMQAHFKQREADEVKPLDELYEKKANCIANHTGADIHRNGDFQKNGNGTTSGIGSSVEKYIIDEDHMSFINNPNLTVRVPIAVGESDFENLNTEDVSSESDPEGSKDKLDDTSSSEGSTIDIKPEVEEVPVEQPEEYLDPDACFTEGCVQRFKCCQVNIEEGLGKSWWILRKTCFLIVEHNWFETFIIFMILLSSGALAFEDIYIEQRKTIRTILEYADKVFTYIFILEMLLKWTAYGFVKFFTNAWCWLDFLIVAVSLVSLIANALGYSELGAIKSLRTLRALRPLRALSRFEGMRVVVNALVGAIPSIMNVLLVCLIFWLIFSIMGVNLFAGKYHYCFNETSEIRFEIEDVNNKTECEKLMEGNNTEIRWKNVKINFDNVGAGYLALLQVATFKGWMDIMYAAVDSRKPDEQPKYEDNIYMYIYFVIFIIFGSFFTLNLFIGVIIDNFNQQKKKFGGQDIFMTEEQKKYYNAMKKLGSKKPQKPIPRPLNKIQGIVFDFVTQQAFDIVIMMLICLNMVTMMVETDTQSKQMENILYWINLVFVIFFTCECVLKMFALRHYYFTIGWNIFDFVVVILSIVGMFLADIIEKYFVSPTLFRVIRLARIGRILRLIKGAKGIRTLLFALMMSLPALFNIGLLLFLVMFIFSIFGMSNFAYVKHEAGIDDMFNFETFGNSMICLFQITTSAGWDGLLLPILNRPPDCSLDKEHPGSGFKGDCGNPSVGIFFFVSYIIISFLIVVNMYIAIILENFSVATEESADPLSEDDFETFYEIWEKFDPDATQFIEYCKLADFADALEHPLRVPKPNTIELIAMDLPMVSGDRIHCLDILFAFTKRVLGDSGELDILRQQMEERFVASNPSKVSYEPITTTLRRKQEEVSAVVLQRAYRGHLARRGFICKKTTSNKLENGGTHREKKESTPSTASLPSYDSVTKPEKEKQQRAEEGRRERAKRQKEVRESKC
From the text: Patch voltage clamp electrophysiology allows for the direct measurement and quantification of block of voltage-gated sodium channels (Nay's), and allows the determination of the time-and voltage-dependence of block which has been interpreted as differential binding to the resting, open, and inactivated states of the sodium channel (Hille, B., Journal of General Physiology (1977), 69: 497-515).
NaV1.1, NaV1.5 and NaV1.6 cDNAs (NM_001165964 (SCN1A), NM_000335 (SCN5A) and NM_014191 (SCN8A), respectively) were stably expressed in HEK-293 cells.
(§1) Sodium currents were measured using the patch clamp technique in the whole-cell configuration using either a PatchXpress automated voltage clamp or manually using an Axopatch 200B (Axon Instruments) or Model 2400 (A-M systems) amplifier.
The manual voltage clamp protocol was as follows: Borosilicate glass micropipettes were fire-polished to a tip diameter yielding a resistance of 2-4 Mohms in the working solutions. […] In some studies, the external sodium was reduced by equimolar replacement with choline. Osmolarity in the CsF internal and NaCl external solutions was adjusted to 300 mOsm/kg and 310 mOsm/kg with glucose, respectively. All recordings were performed at ambient temperature in a bath chamber with a volume of 150 μL. Control sodium currents were measured in 0.5% DMSO. Controls and representative compounds of the invention were applied to the recording chamber through a 4-pinch or 8-pinch valve bath perfusion system manufactured by ALA Scientific Instruments.
Currents were recorded at 40 kHz sampling frequency, filtered at […], and stored using a Digidata-1322A analogue/digital interface with the pClamp software (Axon Instruments). Series resistance compensation was applied (60-80%). […] All statistics in this study are given as mean±SD.
The membrane potential was maintained at a voltage where inactivation of the channel is complete. The voltage is then stepped back to a very negative (Vhold=−150 mV) voltage for 20 ms and then a test pulse is applied to quantify the compound block. The 20 ms brief repolarization was long enough for compound-free channels to completely recover from fast inactivation, but the compound-bound channels recovered more slowly such that negligible recovery could occur during this interval. The percent decrease in sodium current following wash-on of compound was taken as the percent block of sodium channels.

NaV1.1 [3] = molecular target: T1, NaV1.1; assay: Electrophysiological Assay (EP), patch voltage clamp, NaV1.1; assay type: cell-based; conditions: HEK-293 cells, whole-cell patch clamp, inactivated state; arithmetic mean
Protocol: as §1
In some studies, the external sodium was reduced by equimolar replacement with choline. […] All recordings were performed at ambient temperature in a bath chamber with a volume of 150 μL. Control sodium currents were measured in 0.5% DMSO. Controls and representative compounds of the invention were applied to the recording chamber through a 4-pinch or 8-pinch valve bath perfusion system manufactured by ALA Scientific Instruments.
Series resistance compensation was applied (60-80%). […] All statistics in this study are given as mean±SD.
The membrane potential was maintained at a voltage where inactivation of the channel is complete. The voltage is then stepped back to a very negative (Vhold=−150 mV) voltage for 20 ms and then a test pulse is applied to quantify the compound block. […] The percent decrease in sodium current following wash-on of compound was taken as the percent block of sodium channels.

NaV1.6 [4] = molecular target: T2, NaV1.6; assay: Sodium Influx Assay (Flux), NaV1.6; conditions: read-out: Flux NaV1.6 IC50; Trex HEK293 cells, ANG2 dye; arithmetic mean
NaV1.5 = NaV1.5 (Homo sapiens (Human), UniProt Q14524); assay: Sodium Influx Assay (Flux), NaV1.5; conditions: read-out: Flux NaV1.5 IC50; Trex HEK293 cells, ANG2 dye; arithmetic mean
Sequence of NaV1.5 (Q14524 other isoform, or with tags, fused parts or gaps): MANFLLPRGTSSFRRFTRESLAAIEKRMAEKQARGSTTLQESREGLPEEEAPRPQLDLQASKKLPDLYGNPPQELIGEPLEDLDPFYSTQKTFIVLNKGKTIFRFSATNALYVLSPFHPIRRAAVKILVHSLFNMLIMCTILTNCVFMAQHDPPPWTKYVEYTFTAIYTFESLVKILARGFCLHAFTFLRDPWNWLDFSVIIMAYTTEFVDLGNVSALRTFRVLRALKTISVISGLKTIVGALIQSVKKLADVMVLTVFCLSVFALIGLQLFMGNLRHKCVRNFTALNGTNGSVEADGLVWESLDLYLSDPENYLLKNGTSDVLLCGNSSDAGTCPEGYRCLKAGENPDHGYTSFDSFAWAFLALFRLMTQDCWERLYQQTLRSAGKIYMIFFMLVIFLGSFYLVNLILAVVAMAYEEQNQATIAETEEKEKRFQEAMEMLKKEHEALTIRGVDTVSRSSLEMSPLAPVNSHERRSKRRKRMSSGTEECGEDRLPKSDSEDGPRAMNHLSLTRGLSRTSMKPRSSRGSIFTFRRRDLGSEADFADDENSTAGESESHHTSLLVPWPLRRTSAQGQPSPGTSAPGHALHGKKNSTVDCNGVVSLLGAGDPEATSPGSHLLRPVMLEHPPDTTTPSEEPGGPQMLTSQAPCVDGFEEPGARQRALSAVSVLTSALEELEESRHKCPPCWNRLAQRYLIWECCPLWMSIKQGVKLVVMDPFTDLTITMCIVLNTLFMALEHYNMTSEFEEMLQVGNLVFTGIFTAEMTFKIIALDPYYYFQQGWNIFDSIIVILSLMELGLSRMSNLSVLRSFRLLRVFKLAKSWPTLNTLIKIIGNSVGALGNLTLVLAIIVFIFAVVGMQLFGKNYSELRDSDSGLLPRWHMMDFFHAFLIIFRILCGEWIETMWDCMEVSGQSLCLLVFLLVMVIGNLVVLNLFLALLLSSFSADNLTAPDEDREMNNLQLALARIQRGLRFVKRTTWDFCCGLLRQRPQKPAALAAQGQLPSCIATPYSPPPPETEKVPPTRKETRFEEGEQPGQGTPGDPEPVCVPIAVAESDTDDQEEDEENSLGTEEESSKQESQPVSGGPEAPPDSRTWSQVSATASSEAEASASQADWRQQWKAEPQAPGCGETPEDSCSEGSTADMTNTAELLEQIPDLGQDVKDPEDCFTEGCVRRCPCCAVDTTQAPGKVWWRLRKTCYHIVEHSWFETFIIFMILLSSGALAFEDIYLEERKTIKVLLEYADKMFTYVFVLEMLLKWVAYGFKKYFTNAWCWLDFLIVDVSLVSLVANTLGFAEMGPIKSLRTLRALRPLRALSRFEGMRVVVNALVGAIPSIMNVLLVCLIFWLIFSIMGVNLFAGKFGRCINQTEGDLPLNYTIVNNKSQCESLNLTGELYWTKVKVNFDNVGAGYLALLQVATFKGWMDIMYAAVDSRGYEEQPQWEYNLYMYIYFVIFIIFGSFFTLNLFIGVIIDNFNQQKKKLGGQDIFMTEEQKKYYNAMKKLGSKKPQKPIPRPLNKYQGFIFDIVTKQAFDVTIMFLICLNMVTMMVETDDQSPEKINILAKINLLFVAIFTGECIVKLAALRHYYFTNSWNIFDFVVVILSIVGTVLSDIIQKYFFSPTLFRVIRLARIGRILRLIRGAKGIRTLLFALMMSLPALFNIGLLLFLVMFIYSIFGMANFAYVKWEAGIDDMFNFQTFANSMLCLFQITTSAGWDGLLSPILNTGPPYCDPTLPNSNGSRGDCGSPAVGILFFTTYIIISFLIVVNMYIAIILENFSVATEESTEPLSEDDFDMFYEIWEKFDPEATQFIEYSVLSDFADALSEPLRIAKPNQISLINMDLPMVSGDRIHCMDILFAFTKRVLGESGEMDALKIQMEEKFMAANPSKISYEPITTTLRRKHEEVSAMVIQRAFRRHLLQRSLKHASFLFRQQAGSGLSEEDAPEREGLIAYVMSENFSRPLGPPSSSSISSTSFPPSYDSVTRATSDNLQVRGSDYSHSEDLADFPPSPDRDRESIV

Row | Compound | pIC50 (NaV1.1 [1]) | pIC50 (NaV1.6 [2]) | pIC50 (NaV1.1 [3]) | pIC50 (NaV1.6 [4]) | pIC50 (NaV1.5)
1 | C[C@H](c1ccccc1)N1CCC(Oc2cc(F)c(S(=O)(=O)Nc3cscn3)c(F)c2Cl)CC1 [Example 283, (R)-3-chloro-2,6-difluoro-4-((1-(1-phenylethyl)piperidin-4-yl)oxy)-N-(thiazol-4-yl)benzenesulfonamide 2,2,2-trifluoroacetate formate] | < 4.52 | 7.43 | < 5.00 | 7.17 | < 4.52
2 | CN(c1cc(F)c(S(=O)(=O)Nc2cccc(F)n2)cc1Cl)[C@H]1CCN(C(C)(C)c2ccccc2)C1 [Example 260, (S)-5-chloro-2-fluoro-N-(6-fluoropyridin-2-yl)-4-(methyl(1-(2-phenylpropan-2-yl)pyrrolidin-3-yl)amino)benzenesulfonamide 2,2,2-trifluoroacetate] | 5.13 | 6.07 | 5.02 | 5.77 | 5.00
3 | CN(c1ccc(S(=O)(=O)Nc2nccs2)cc1Cl)[C@H]1CCN(Cc2cccc(Cl)c2)C1 [Example 27, (S)-3-chloro-4-((1-(3-chlorobenzyl)pyrrolidin-3-yl)(methyl)amino)-N-(thiazol-2-yl)benzenesulfonamide] | 5.43 | 7.15 | 5.47 | 6.36 | 5.16
4 | CCN(c1ccc(S(=O)(=O)Nc2ncns2)cc1Cl)[C@H]1CCN(Cc2ccccc2)C1 [Example 36, (S)-4-((1-benzylpyrrolidin-3-yl)(ethyl)amino)-3-chloro-N-(1,2,4-thiadiazol-5-yl)benzenesulfonamide] | < 4.52 | 6.16 | < 5.00 | 6.21 | < 4.52
5 | CC1(Nc2ccc(S(=O)(=O)Nc3nccs3)cc2Cl)CCN(Cc2ccccc2)C1 (centres unmarked) [Example 61, 4-((1-benzyl-3-methylpyrrolidin-3-yl)amino)-3-chloro-N-(thiazol-2-yl)benzenesulfonamide] | 5.20 | 6.86 | < 5.00 | 6.75 | 5.16
6 | C[C@@]1(Nc2ccc(S(=O)(=O)Nc3cscn3)cc2Cl)CCN(Cc2ccccc2)C1 [Example 225, (R)-4-((1-benzyl-3-methylpyrrolidin-3-yl)amino)-3-chloro-N-(thiazol-4-yl)benzenesulfonamide formate] | 5.26 | 5.27 | < 5.00 | 5.41 | 5.26
7 | C[C@H](c1ccccc1)N1CCC(Oc2ccc(S(=O)(=O)Nc3cscn3)cc2Cl)CC1 [Example 57, (R)-3-chloro-4-((1-(1-phenylethyl)piperidin-4-yl)oxy)-N-(thiazol-4-yl)benzenesulfonamide 2,2,2-trifluoroacetate] | 4.86 | 6.57 | < 5.00 | 6.01 | 5.28
8 | O=S(=O)(Nc1cscn1)c1c(F)cc(OC2CCN(Cc3ccccc3)CC2)c(Cl)c1F [Example 105, 4-((1-benzylpiperidin-4-yl)oxy)-3-chloro-2,6-difluoro-N-(thiazol-4-yl)benzenesulfonamide formate] | 4.56 | 6.82 | < 5.00 | 6.57 | 4.76
9 | CN(c1cc(F)c(S(=O)(=O)Nc2cscn2)cc1Cl)[C@H]1CCN(C2(c3ccccc3)CC2)C1 [Example 259, (S)-5-chloro-2-fluoro-4-(methyl(1-(1-phenylcyclopropyl)pyrrolidin-3-yl)amino)-N-(thiazol-4-yl)benzenesulfonamide 2,2,2-trifluoroacetate] | 5.42 | 6.36 | 5.45 | 5.80 | 5.24
10 | CN(c1cc(F)c(S(=O)(=O)Nc2cscn2)cc1Cl)[C@H]1CCN(C(C)(C)c2ccccc2)C1 [Example 257, (S)-5-chloro-2-fluoro-4-(methyl(1-(2-phenylpropan-2-yl)pyrrolidin-3-yl)amino)-N-(thiazol-4-yl)benzenesulfonamide formate] | 4.99 | 6.77 | < 5.00 | 6.15 | 4.98
11 | CC(C)(c1ccccc1)N1CCC(Oc2ccc(S(=O)(=O)Nc3nccs3)cc2Cl)CC1 [Example 59, 3-chloro-4-((1-(2-phenylpropan-2-yl)piperidin-4-yl)oxy)-N-(thiazol-2-yl)benzenesulfonamide 2,2,2-trifluoroacetate] | 5.13 | 7.04 | 5.00 | 6.59 | 5.13

Second part, led by results:

Row | pIC50 (NaV1.1 [1]) | pIC50 (NaV1.6 [2]) | pIC50 (NaV1.1 [3]) | pIC50 (NaV1.6 [4]) | Compound | pIC50 (NaV1.5)
12 | < 4.52 | 6.43 | < 5.00 | 6.07 | Cc1cccc(CN2CC[C@H](N(C)c3cc(F)c(S(=O)(=O)Nc4cscn4)cc3Cl)C2)n1 [Example 192, (S)-5-chloro-2-fluoro-4-(methyl(1-((6-methylpyridin-2-yl)methyl)pyrrolidin-3-yl)amino)-N-(thiazol-4-yl)benzene-sulfonamide] | < 4.52
13 | 4.65 | 6.34 | < 5.00 | 6.27 | COc1ccccc1CN1CC[C@H](N(C)c2cc(F)c(S(=O)(=O)Nc3cscn3)cc2Cl)C1 [Example 206, (S)-5-chloro-2-fluoro-4-((1-(2-methoxybenzyl)pyrrolidin-3-yl)(methyl)amino)-N-(thiazol-4-yl)benzenesulfonamide] | < 4.52
14 | 4.97 | 7.05 | < 5.00 | 7.00 | C[C@H](c1ccccc1)N1CC[C@H](N(C)c2ccc(S(=O)(=O)Nc3nccs3)cc2Cl)C1 [Example 44, 3-chloro-4-(methyl((S)-1-((R)-1-phenylethyl)pyrrolidin-3-yl)amino)-N-(thiazol-2-yl)benzenesulfonamide] | < 4.52
15 | 5.57 | 6.31 | 5.32 | 6.12 | CN(c1ccc(S(=O)(=O)Nc2cscn2)cc1Cl)[C@H]1CCN(Cc2cccc(C(F)F)c2)C1 [Example 253, (S)-3-chloro-4-((1-(3-(difluoromethyl)benzyl)pyrrolidin-3-yl)(methyl)amino)-N-(thiazol-4-yl)benzenesulfonamide formate] | 5.60
16 | 5.25 | 6.42 | 5.37 | 5.97 | C[C@H](c1cc(Cl)ccc1F)N1CCC(Oc2ccc(S(=O)(=O)Nc3cscn3)cc2Cl)CC1 [Example 315, (R)-3-chloro-4-((1-(1-(5-chloro-2-fluorophenyl)ethyl)piperidin-4-yl)oxy)-N-(thiazol-4-yl)benzenesulfonamide] | 5.19
17 | < 4.52 | 6.01 | < 5.00 | 5.97 | C[C@H](c1ccccc1)N1CCC(Oc2ccc(S(=O)(=O)Nc3ccncn3)cc2Cl)CC1 [Example 300, (R)-3-chloro-4-((1-(1-phenylethyl)piperidin-4-yl)oxy)-N-(pyrimidin-4-yl)benzenesulfonamide] | < 4.52
18 | 5.35 | 5.42 | < 5.00 | 5.51 | CCN(c1cc(F)c(S(=O)(=O)Nc2cscn2)cc1Cl)[C@H]1CCN(Cc2ccccc2)C1 [Example 263, (S)-4-((1-benzylpyrrolidin-3-yl)(ethyl)amino)-5-chloro-2-fluoro-N-(thiazol-4-yl)benzenesulfonamide] | 4.72
19 | < 4.52 | 6.08 | < 5.00 | 6.26 | O=S(=O)(Nc1nccs1)c1ccc(OC2CCN(Cc3ccccn3)CC2)c(Cl)c1 [Example 65, 3-chloro-4-((1-(pyridin-2-ylmethyl)piperidin-4-yl)oxy)-N-(thiazol-2-yl)benzenesulfonamide] | 4.53
